Measurements reported in US12502362B2, “Inhibitors of nucleotidyltransferase superfamily enzymes as antibiotics” (priority 2017, dated 2025).
Where two headings read alike, the source gives them in different places.

Assays:
[1] = tested on: S. aureus ATCC strains and MRSA; type: cell-based, Staphylococcus aureus
[2] = tested on: Staphylococcus epidermidis; type: cell-based; on FOX screen: key: POS: cefoxitin-screen positive (resistant to cefoxitin)
Method: (§1) It was also tested whether compounds #63 and #285 can inhibit other coagulase-negative Staphylococcus (CNS) including S. epidermidis, S. hominis, etc. […].

Staphylococcus hominis = type: cell-based
Method: as §1

[3] = tested on: Coagulase negative Staphylococcus; assay: Antibiotic susceptibility of coagulase negative Staphylococcus strains; type: cell-based
[4] = Se1 (Staphylococcus epidermidis)
[5] = Se2 (Staphylococcus epidermidis)
[6] = Se3 (Staphylococcus epidermidis)
[7] = Se4 (Staphylococcus epidermidis)
[8] = Se5 (Staphylococcus epidermidis)
[9] = CNS1 (Coagulase negative Staphylococcus)
[10] = CNS2 (Coagulase negative Staphylococcus)

## C[C@H]1c2cccc(O)c2C(=O)C2=C(O)[C@]3(O)C(=O)C(C(N)=O)=C(O)[C@@H](N(C)C)[C@@H]3[C@@H](O)[C@@H]21 [DOX, doxycycline]
[1]; S. aureus ATCC 25923
  Antibiotic susceptibility: S
[1]; S. aureus ATCC 29213
  Antibiotic susceptibility: S
[1]; S. aureus ATCC BAA 976
  Antibiotic susceptibility: S
[1]; S. aureus ATCC BAA 977
  Antibiotic susceptibility: S
[1]; S. aureus ATCC BAA 1026
  Antibiotic susceptibility: S
[1]; Sa1 (MRSA)
  Antibiotic susceptibility: S
[1]; Sa2 (MRSA)
  Antibiotic susceptibility: S
[1]; Sa3 (MRSA)
  Antibiotic susceptibility: S
[1]; Sa6 (MRSA)
  Antibiotic susceptibility: S
[1]; Sa7 (MRSA)
  Antibiotic susceptibility: S
[1]; Sa9 (MRSA)
  Antibiotic susceptibility: S
[1]; Sa11 (MRSA)
  Antibiotic susceptibility: S
[1]; Sa12 (MRSA)
  Antibiotic susceptibility: S
[1]; Sa14 (MRSA)
  Antibiotic susceptibility: S
[1]; Sa15 (MRSA)
  Antibiotic susceptibility: S
[1]; Sa16 (MRSA)
  Antibiotic susceptibility: S
[1]; Sa17 (MRSA)
  Antibiotic susceptibility: S
[1]; Sa18 (MRSA)
  Antibiotic susceptibility: S
[1]; Sa19 (MRSA)
  Antibiotic susceptibility: S
[1]; Sa20 (MRSA)
  Antibiotic susceptibility: S
[1]; Sa21 (MRSA)
  Antibiotic susceptibility: S
[1]; Sa22 (MRSA)
  Antibiotic susceptibility: S
[1]; Sa23 (MRSA)
  Antibiotic susceptibility: S
[2]; [4]
  Antibiotic susceptibility: S
[2]; [5]
  Antibiotic susceptibility: S
[2]; [6]
  Antibiotic susceptibility: S
[2]; [7]
  Antibiotic susceptibility: S
[2]; [8]
  Antibiotic susceptibility: S
Staphylococcus hominis; Sh1 (Staphylococcus hominis)
  Antibiotic susceptibility: S
Staphylococcus hominis; Sh2 (Staphylococcus hominis)
  Antibiotic susceptibility: R
Staphylococcus hominis; Sh3 (Staphylococcus hominis)
  Antibiotic susceptibility: S
[3]; [9]
  Antibiotic susceptibility: S
[3]; [10]
  Antibiotic susceptibility: S

## CC[C@H]1OC(=O)[C@H](C)[C@@H](O[C@H]2C[C@@](C)(OC)[C@@H](O)[C@H](C)O2)[C@H](C)[C@@H](O[C@@H]2O[C@H](C)C[C@H](N(C)C)[C@H]2O)[C@](C)(O)C[C@@H](C)C(=O)[C@H](C)[C@@H](O)[C@]1(C)O [ERY, erythromycin]
[1]; S. aureus ATCC 25923
  Antibiotic susceptibility: S
[1]; S. aureus ATCC 29213
  Antibiotic susceptibility: S
[1]; S. aureus ATCC BAA 976
  Antibiotic susceptibility: R
[1]; S. aureus ATCC BAA 977
  Antibiotic susceptibility: R
[1]; S. aureus ATCC BAA 1026
  Antibiotic susceptibility: R
[1]; Sa1 (MRSA)
  Antibiotic susceptibility: R
[1]; Sa2 (MRSA)
  Antibiotic susceptibility: R
[1]; Sa3 (MRSA)
  Antibiotic susceptibility: R
[1]; Sa5 (MRSA)
  Antibiotic susceptibility: R
[1]; Sa6 (MRSA)
  Antibiotic susceptibility: R
[1]; Sa7 (MRSA)
  Antibiotic susceptibility: R
[1]; Sa8 (MRSA)
  Antibiotic susceptibility: R
[1]; Sa9 (MRSA)
  Antibiotic susceptibility: R
[1]; Sa10 (MRSA)
  Antibiotic susceptibility: R
[1]; Sa11 (MRSA)
  Antibiotic susceptibility: R
[1]; Sa12 (MRSA)
  Antibiotic susceptibility: R
[1]; Sa14 (MRSA)
  Antibiotic susceptibility: R
[1]; Sa15 (MRSA)
  Antibiotic susceptibility: R
[1]; Sa16 (MRSA)
  Antibiotic susceptibility: R
[1]; Sa17 (MRSA)
  Antibiotic susceptibility: R
[1]; Sa18 (MRSA)
  Antibiotic susceptibility: R
[1]; Sa19 (MRSA)
  Antibiotic susceptibility: R
[1]; Sa20 (MRSA)
  Antibiotic susceptibility: R
[1]; Sa21 (MRSA)
  Antibiotic susceptibility: R
[1]; Sa22 (MRSA)
  Antibiotic susceptibility: R
[1]; Sa23 (MRSA)
  Antibiotic susceptibility: R
[2]; [4]
  Antibiotic susceptibility: S
[2]; [5]
  Antibiotic susceptibility: R
[2]; [6]
  Antibiotic susceptibility: R
[2]; [7]
  Antibiotic susceptibility: R
[2]; [8]
  Antibiotic susceptibility: R
Staphylococcus hominis; Sh1 (Staphylococcus hominis)
  Antibiotic susceptibility: R
Staphylococcus hominis; Sh2 (Staphylococcus hominis)
  Antibiotic susceptibility: S
Staphylococcus hominis; Sh3 (Staphylococcus hominis)
  Antibiotic susceptibility: R
[3]; [9]
  Antibiotic susceptibility: I
[3]; [10]
  Antibiotic susceptibility: S

## CO[C@@]1(NC(=O)Cc2cccs2)C(=O)N2C(C(=O)O)=C(COC(N)=O)CS[C@@H]21 [FOX, Cefoxitin]
[1]; S. aureus ATCC 25923
  FOX screen: Neg
[1]; S. aureus ATCC 29213
  FOX screen: Neg
[1]; S. aureus ATCC BAA 976
  FOX screen: POS
[1]; S. aureus ATCC BAA 977
  FOX screen: Neg
[1]; S. aureus ATCC BAA 1026
  FOX screen: POS
[1]; Sa1 (MRSA)
  FOX screen: POS
[1]; Sa2 (MRSA)
  FOX screen: POS
[1]; Sa3 (MRSA)
  FOX screen: POS
[1]; Sa6 (MRSA)
  FOX screen: POS
[1]; Sa7 (MRSA)
  FOX screen: POS
[1]; Sa9 (MRSA)
  FOX screen: POS
[1]; Sa11 (MRSA)
  FOX screen: POS
[1]; Sa12 (MRSA)
  FOX screen: POS
[1]; Sa14 (MRSA)
  FOX screen: POS
[1]; Sa15 (MRSA)
  FOX screen: POS
[1]; Sa16 (MRSA)
  FOX screen: POS
[1]; Sa17 (MRSA)
  FOX screen: POS
[1]; Sa18 (MRSA)
  FOX screen: POS
[1]; Sa19 (MRSA)
  FOX screen: POS
[1]; Sa20 (MRSA)
  FOX screen: POS
[1]; Sa21 (MRSA)
  FOX screen: POS
[1]; Sa22 (MRSA)
  FOX screen: POS
[1]; Sa23 (MRSA)
  FOX screen: POS
[2]; [4]
  FOX screen: POS
[2]; [5]
  FOX screen: POS
[2]; [6]
  FOX screen: POS
[2]; [7]
  FOX screen: POS
[2]; [8]
  FOX screen: POS
Staphylococcus hominis; Sh1 (Staphylococcus hominis)
  FOX screen: POS
Staphylococcus hominis; Sh2 (Staphylococcus hominis)
  FOX screen: POS
Staphylococcus hominis; Sh3 (Staphylococcus hominis)
  FOX screen: POS
[3]; [9]
  FOX screen: POS
[3]; [10]
  FOX screen: POS
